Laboratory results: paper PMC5458547, “Discovery of first-in-class reversible dual small molecule inhibitors against G9a and DNMTs in hematological malignancies” (Nature Communications, 2017)

Legend:
Test in all cases: KINOMEscan kinase profiling
Format in all cases: binding
MKNK2 = biological target: T1, MKNK2 (Homo sapiens, UniProt Q9HBH9); settings: read-out: Percent Control
T1 construct: purchased DiscoverX KINOMEscan (kinases); BPS Bioscience (epigenetic targets)
Method: (§1) Kinase Selectivity Profiling
(§2) (out of which 90 are non-mutant kinases) was performed at DiscoverRx (http://www.discoverx.com/home) using the KINOMEscan™ screening platform at a test concentration of 10 µM. Results for primary screen […]
(§3) positive control signal) / (negative control signal – positive control signal) *100, where negative control corresponds to DMSO treatment (100%) and positive control to the signal obtained with a control competitive compound (0%). […]
(§4) using the Hill equation. Each target was assayed in duplicate. […]

p38-alpha = biological target: T2, p38-alpha (Homo sapiens, UniProt Q16539); settings: read-out: Percent Control
T2 construct: purchased DiscoverX KINOMEscan (kinases); BPS Bioscience (epigenetic targets)
T2 sequence (Q16539 whole entry): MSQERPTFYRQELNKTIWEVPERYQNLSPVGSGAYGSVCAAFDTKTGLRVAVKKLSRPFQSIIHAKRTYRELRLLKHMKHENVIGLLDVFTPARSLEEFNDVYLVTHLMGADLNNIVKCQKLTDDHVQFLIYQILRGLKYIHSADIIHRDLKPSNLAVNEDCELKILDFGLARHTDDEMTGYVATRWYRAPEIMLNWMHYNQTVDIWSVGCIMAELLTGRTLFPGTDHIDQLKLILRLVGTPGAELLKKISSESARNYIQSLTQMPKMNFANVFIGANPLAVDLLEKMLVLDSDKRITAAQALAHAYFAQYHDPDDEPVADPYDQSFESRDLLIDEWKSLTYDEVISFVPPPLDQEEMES
Method: as §1, §2, §3, §4

PLK3 = biological target: T3, PLK3 (Homo sapiens, UniProt Q9H4B4); settings: read-out: Percent Control
T3 construct: purchased DiscoverX KINOMEscan (kinases); BPS Bioscience (epigenetic targets)
Method: as §1, §2, §3, §4

PAK2 = biological target: T4, PAK2 (Homo sapiens, UniProt Q13177); settings: read-out: Percent Control
T4 construct: purchased DiscoverX KINOMEscan (kinases); BPS Bioscience (epigenetic targets)
Method: as §1, §2, §3, §4

PIM3 = biological target: T5, PIM3 (Homo sapiens, UniProt Q86V86); settings: read-out: Percent Control
T5 construct: purchased DiscoverX KINOMEscan (kinases); BPS Bioscience (epigenetic targets)
Method: as §1, §2, §3, §4

INSR = biological target: T6, INSR (Homo sapiens, UniProt P06213); settings: read-out: Percent Control
T6 construct: purchased DiscoverX KINOMEscan (kinases); BPS Bioscience (epigenetic targets)
Method: as §1, §2, §3, §4

[1] = biological target: T7, ABL1(E255K)-phosphorylated (Homo sapiens, UniProt P00519, E255K); settings: read-out: Percent Control
T7 construct: purchased DiscoverX KINOMEscan (kinases); BPS Bioscience (epigenetic targets)
T7 sequence (P00519 whole entry E255K): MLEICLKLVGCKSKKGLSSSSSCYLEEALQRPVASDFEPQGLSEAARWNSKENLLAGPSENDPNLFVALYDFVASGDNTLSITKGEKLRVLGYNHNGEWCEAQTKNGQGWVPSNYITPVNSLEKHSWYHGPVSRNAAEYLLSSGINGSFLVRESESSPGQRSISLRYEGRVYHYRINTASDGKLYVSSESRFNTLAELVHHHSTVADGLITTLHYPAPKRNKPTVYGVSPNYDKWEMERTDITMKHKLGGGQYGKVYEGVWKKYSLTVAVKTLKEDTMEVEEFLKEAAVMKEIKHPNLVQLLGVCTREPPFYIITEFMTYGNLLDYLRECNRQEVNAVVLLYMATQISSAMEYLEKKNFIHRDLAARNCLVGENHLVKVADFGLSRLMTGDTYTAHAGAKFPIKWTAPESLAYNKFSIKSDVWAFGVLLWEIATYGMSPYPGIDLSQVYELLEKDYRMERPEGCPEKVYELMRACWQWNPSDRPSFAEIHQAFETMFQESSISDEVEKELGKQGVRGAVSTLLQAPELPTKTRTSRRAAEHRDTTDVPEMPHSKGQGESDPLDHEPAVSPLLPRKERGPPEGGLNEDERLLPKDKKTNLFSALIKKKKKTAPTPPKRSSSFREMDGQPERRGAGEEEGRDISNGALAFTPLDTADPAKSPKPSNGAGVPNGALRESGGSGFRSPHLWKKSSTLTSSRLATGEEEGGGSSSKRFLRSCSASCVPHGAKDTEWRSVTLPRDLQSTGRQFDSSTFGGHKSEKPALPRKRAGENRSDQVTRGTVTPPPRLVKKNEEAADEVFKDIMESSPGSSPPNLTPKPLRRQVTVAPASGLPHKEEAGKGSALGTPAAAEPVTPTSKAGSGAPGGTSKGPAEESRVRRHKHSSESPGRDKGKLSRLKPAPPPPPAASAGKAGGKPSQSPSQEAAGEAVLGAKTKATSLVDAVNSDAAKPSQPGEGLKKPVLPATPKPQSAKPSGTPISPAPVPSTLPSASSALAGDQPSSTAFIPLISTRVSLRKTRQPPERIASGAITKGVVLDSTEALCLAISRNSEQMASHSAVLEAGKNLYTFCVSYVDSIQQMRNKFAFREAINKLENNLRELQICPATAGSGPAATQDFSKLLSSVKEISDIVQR
Method: as §1, §2, §3, §4

FAK = biological target: T8, FAK (Homo sapiens, UniProt Q05397); settings: read-out: Percent Control
T8 construct: purchased DiscoverX KINOMEscan (kinases); BPS Bioscience (epigenetic targets)
Method: as §1, §2, §3, §4

ABL1-nonphosphorylated = biological target: T9, ABL1-nonphosphorylated (Homo sapiens, UniProt P00519); settings: read-out: Percent Control
T9 construct: purchased DiscoverX KINOMEscan (kinases); BPS Bioscience (epigenetic targets)
Method: as §1, §2, §3, §4

SNARK = biological target: T10, SNARK (Homo sapiens, UniProt Q9H093); settings: read-out: Percent Control
T10 construct: purchased DiscoverX KINOMEscan (kinases); BPS Bioscience (epigenetic targets)
Method: as §1, §2, §3, §4

MAPKAPK2 = biological target: T11, MAPKAPK2 (Homo sapiens, UniProt P49137); settings: read-out: Percent Control
T11 construct: purchased DiscoverX KINOMEscan (kinases); BPS Bioscience (epigenetic targets)
Method: as §1, §2, §3, §4

KIT(D816V) = biological target: T12, KIT(D816V) (Homo sapiens, UniProt P10721, D816V); settings: read-out: Percent Control
T12 construct: purchased DiscoverX KINOMEscan (kinases); BPS Bioscience (epigenetic targets)
Method: as §1, §2, §3, §4

PAK1 = biological target: T13, PAK1 (Homo sapiens, UniProt Q13153); settings: read-out: Percent Control
T13 construct: purchased DiscoverX KINOMEscan (kinases); BPS Bioscience (epigenetic targets)
Method: as §1, §2, §3, §4

PIK3C2B = biological target: T14, PIK3C2B (Homo sapiens, UniProt O00750); settings: read-out: Percent Control
T14 construct: purchased DiscoverX KINOMEscan (kinases); BPS Bioscience (epigenetic targets)
Method: as §1, §2, §3, §4

VEGFR2 = biological target: T15, VEGFR2 (Homo sapiens, UniProt P35968); settings: read-out: Percent Control
T15 construct: purchased DiscoverX KINOMEscan (kinases); BPS Bioscience (epigenetic targets)
Method: as §1, §2, §3, §4

PIM1 = biological target: T16, PIM1 (Homo sapiens, UniProt P11309); settings: read-out: Percent Control
T16 construct: purchased DiscoverX KINOMEscan (kinases); BPS Bioscience (epigenetic targets)
Method: as §1, §2, §3, §4

JNK2 = biological target: T17, JNK2 (Homo sapiens, UniProt P45984); settings: read-out: Percent Control
T17 construct: purchased DiscoverX KINOMEscan (kinases); BPS Bioscience (epigenetic targets)
Method: as §1, §2, §3, §4

AURKA = biological target: T18, AURKA (Homo sapiens, UniProt O14965); settings: read-out: Percent Control
T18 construct: purchased DiscoverX KINOMEscan (kinases); BPS Bioscience (epigenetic targets)
T18 sequence (O14965 whole entry): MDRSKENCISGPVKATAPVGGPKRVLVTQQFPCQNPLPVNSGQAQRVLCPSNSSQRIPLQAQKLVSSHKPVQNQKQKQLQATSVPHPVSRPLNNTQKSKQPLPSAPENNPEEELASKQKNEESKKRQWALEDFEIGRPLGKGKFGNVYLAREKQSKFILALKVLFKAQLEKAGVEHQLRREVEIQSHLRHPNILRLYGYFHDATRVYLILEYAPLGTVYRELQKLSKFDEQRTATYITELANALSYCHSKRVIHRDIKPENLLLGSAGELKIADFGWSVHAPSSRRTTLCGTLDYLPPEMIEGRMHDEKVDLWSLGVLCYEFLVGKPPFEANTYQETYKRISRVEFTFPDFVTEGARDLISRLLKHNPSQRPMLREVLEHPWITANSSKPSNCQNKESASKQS
Method: as §1, §2, §3, §4

CDK3 = biological target: T19, CDK3 (Homo sapiens, UniProt Q00526); settings: read-out: Percent Control
T19 construct: purchased DiscoverX KINOMEscan (kinases); BPS Bioscience (epigenetic targets)
T19 sequence (Q00526 whole entry): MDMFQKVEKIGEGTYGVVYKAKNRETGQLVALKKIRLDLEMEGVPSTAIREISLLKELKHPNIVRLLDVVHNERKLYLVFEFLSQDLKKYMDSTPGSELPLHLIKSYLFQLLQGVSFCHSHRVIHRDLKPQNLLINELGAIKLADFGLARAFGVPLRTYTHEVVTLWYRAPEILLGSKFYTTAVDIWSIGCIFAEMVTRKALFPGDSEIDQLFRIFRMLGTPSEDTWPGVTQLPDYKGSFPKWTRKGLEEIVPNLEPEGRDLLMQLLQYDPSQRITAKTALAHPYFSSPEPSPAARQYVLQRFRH
Method: as §1, §2, §3, §4

ABL1-phosphorylated = biological target: T20, ABL1-phosphorylated (Homo sapiens, UniProt P00519); settings: read-out: Percent Control
T20 construct: purchased DiscoverX KINOMEscan (kinases); BPS Bioscience (epigenetic targets)
T20 sequence (P00519 whole entry): as the sequence (P00519 whole entry E255K) above, with K255E counted along it
Method: as §1, §2, §3, §4

SRPK3 = biological target: T21, SRPK3 (Homo sapiens, UniProt Q9UPE1); settings: read-out: Percent Control
T21 construct: purchased DiscoverX KINOMEscan (kinases); BPS Bioscience (epigenetic targets)
Method: as §1, §2, §3, §4

AKT1 = biological target: T22, AKT1 (Homo sapiens, UniProt P31749); settings: read-out: Percent Control
T22 construct: purchased DiscoverX KINOMEscan (kinases); BPS Bioscience (epigenetic targets)
Method: as §1, §2, §3, §4

PDGFRB = biological target: T23, PDGFRB (Homo sapiens, UniProt P09619); settings: read-out: Percent Control
T23 construct: purchased DiscoverX KINOMEscan (kinases); BPS Bioscience (epigenetic targets)
Method: as §1, §2, §3, §4

GSK3B = biological target: T24, GSK3B (Homo sapiens, UniProt P49841); settings: read-out: Percent Control
T24 construct: purchased DiscoverX KINOMEscan (kinases); BPS Bioscience (epigenetic targets)
Method: as §1, §2, §3, §4

IKK-alpha = biological target: T25, IKK-alpha (Homo sapiens, UniProt O15111); settings: read-out: Percent Control
T25 construct: purchased DiscoverX KINOMEscan (kinases); BPS Bioscience (epigenetic targets)
Method: as §1, §2, §3, §4

PKAC-alpha = biological target: T26, PKAC-alpha (Homo sapiens, UniProt P17612); settings: read-out: Percent Control
T26 construct: purchased DiscoverX KINOMEscan (kinases); BPS Bioscience (epigenetic targets)
Method: as §1, §2, §3, §4

TRKA = biological target: T27, TRKA (Homo sapiens, UniProt P04629)
T27 construct: purchased DiscoverRx (DiscoverX), KINOMEscan screening platform
T27 sequence (P04629 33-796): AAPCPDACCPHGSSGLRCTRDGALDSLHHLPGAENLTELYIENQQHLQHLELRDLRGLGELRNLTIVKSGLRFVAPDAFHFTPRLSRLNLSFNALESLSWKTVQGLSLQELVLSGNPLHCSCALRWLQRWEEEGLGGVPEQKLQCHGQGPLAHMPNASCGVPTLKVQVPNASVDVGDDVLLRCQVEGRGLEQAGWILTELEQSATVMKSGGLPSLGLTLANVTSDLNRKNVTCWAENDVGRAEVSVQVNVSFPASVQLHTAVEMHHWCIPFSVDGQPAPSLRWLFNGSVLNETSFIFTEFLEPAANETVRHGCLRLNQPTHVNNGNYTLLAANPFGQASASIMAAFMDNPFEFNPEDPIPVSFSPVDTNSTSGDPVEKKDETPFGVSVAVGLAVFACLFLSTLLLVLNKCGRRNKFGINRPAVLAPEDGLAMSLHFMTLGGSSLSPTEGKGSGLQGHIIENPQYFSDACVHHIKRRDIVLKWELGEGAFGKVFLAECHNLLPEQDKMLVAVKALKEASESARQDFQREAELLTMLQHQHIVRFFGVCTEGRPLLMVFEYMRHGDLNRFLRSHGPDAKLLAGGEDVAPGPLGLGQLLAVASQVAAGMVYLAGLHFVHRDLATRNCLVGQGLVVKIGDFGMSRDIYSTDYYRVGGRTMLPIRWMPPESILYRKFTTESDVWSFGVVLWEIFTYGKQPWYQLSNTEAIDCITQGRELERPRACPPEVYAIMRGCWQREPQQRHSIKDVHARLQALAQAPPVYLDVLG
Method: as §1, §2, §3, §4

LKB1 = biological target: T28, LKB1 (Homo sapiens, UniProt Q15831); settings: read-out: Percent Control
T28 construct: purchased DiscoverX KINOMEscan (kinases); BPS Bioscience (epigenetic targets)
T28 sequence (Q15831 whole entry): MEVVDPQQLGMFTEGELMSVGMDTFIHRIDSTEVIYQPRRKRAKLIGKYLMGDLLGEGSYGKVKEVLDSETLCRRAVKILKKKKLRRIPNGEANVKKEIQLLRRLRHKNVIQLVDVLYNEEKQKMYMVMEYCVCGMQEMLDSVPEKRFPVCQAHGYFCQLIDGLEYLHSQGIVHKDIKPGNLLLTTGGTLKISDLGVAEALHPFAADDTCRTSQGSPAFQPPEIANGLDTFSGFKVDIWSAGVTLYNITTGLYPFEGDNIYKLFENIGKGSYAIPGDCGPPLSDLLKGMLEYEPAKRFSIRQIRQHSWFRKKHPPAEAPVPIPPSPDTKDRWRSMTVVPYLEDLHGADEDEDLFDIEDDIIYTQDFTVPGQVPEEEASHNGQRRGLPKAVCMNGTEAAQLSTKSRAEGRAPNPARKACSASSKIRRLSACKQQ
Method: as §1, §2, §3, §4

FLT3 = biological target: T29, FLT3 (Homo sapiens, UniProt P36888); settings: read-out: Percent Control
T29 construct: purchased DiscoverX KINOMEscan (kinases); BPS Bioscience (epigenetic targets)
Method: as §1, §2, §3, §4

AKT2 = biological target: T30, AKT2 (Homo sapiens, UniProt P31751); settings: read-out: Percent Control
T30 construct: purchased DiscoverX KINOMEscan (kinases); BPS Bioscience (epigenetic targets)
Method: as §1, §2, §3, §4

MET = biological target: T31, MET (Homo sapiens, UniProt P08581); settings: read-out: Percent Control
T31 construct: purchased DiscoverX KINOMEscan (kinases); BPS Bioscience (epigenetic targets)
Method: as §1, §2, §3, §4

CDK9 = biological target: T32, CDK9 (Homo sapiens, UniProt P50750); settings: read-out: Percent Control
T32 construct: purchased DiscoverX KINOMEscan (kinases); BPS Bioscience (epigenetic targets)
Method: as §1, §2, §3, §4

MEK2 = biological target: T33, MEK2 (Homo sapiens, UniProt P36507); settings: read-out: Percent Control
T33 construct: purchased DiscoverX KINOMEscan (kinases); BPS Bioscience (epigenetic targets)
Method: as §1, §2, §3, §4

EPHA2 = biological target: T34, EPHA2 (Homo sapiens, UniProt P29317); settings: read-out: Percent Control
T34 construct: purchased DiscoverX KINOMEscan (kinases); BPS Bioscience (epigenetic targets)
Method: as §1, §2, §3, §4

DYRK1B = biological target: T35, DYRK1B (Homo sapiens, UniProt Q9Y463); settings: read-out: Percent Control
T35 construct: purchased DiscoverX KINOMEscan (kinases); BPS Bioscience (epigenetic targets)
Method: as §1, §2, §3, §4

TGFBR1 = biological target: T36, TGFBR1 (Homo sapiens, UniProt P36897); settings: read-out: Percent Control
T36 construct: purchased DiscoverX KINOMEscan (kinases); BPS Bioscience (epigenetic targets)
Method: as §1, §2, §3, §4

BMPR2 = biological target: T37, BMPR2 (Homo sapiens, UniProt Q13873); settings: read-out: Percent Control
T37 construct: purchased DiscoverX KINOMEscan (kinases); BPS Bioscience (epigenetic targets)
Method: as §1, §2, §3, §4

MARK3 = biological target: T38, MARK3 (Homo sapiens, UniProt P27448); settings: read-out: Percent Control
T38 construct: purchased DiscoverX KINOMEscan (kinases); BPS Bioscience (epigenetic targets)
Method: as §1, §2, §3, §4

CSF1R = biological target: T39, CSF1R (Homo sapiens, UniProt P07333); settings: read-out: Percent Control
T39 construct: purchased DiscoverX KINOMEscan (kinases); BPS Bioscience (epigenetic targets)
Method: as §1, §2, §3, §4

CSNK1G2 = biological target: T40, CSNK1G2 (Homo sapiens, UniProt P78368); settings: read-out: Percent Control
T40 construct: purchased DiscoverX KINOMEscan (kinases); BPS Bioscience (epigenetic targets)
Method: as §1, §2, §3, §4

ALK = biological target: T41, ALK (Homo sapiens, UniProt Q9UM73)
T41 construct: purchased DiscoverRx (KINOMEscan contract screen)
T41 sequence (Q9UM73 19-1620): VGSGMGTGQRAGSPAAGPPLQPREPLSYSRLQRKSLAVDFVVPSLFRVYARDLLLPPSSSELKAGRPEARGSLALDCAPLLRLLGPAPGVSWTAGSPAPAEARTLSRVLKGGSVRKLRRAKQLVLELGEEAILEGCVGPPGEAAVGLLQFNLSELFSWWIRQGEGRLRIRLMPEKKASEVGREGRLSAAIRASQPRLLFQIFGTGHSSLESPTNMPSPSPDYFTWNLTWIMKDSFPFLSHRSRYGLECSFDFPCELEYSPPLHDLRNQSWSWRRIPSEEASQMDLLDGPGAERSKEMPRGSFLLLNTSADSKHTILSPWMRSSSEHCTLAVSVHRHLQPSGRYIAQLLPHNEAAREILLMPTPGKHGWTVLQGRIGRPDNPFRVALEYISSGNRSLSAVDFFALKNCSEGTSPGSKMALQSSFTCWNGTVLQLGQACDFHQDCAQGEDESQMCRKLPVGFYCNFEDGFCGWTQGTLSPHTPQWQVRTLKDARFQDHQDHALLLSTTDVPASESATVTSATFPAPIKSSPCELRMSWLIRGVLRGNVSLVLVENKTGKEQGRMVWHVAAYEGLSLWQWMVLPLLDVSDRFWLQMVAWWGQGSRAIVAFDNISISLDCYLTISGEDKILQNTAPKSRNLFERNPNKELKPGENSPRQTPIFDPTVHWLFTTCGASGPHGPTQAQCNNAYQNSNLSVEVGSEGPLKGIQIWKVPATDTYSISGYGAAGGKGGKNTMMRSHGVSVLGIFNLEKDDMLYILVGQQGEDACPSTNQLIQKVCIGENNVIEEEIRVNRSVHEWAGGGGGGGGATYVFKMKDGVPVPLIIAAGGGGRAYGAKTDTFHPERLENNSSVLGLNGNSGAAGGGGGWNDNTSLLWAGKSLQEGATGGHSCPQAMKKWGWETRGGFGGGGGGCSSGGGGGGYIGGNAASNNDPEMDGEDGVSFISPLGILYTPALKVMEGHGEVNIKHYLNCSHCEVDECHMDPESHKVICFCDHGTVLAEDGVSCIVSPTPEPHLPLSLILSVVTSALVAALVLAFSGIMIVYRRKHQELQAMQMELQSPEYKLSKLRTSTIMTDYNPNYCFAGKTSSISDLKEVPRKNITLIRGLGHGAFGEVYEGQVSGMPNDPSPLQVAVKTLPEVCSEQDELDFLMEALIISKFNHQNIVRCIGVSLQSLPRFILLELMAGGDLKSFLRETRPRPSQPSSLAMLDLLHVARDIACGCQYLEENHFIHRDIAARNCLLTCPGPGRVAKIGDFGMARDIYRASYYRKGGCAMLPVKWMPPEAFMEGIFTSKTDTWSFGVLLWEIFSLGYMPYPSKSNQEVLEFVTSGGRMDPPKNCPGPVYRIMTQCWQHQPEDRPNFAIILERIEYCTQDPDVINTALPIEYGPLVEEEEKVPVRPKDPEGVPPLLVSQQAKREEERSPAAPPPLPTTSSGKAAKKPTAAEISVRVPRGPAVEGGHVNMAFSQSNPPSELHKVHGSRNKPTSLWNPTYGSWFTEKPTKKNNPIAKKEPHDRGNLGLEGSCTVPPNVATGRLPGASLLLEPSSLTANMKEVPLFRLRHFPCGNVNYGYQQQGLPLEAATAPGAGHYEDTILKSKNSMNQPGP
Method: as §1, §2, §3, §4

[2] = 10 µM, read-out: Percent Control

COc1cc2c(NC3CCN(C)CC3)cc(-c3ccc(C)o3)nc2cc1OCCCN1CCCC1 [CM-272, 6-methoxy-2-(5-methyl-2-furyl)-N-(1-methyl-4-piperidyl)-7-(3-pyrrolidin-1-ylpropoxy)quinolin-4-amine]
remaining binding at 10 µM (MKNK2): 18%
remaining binding at 10 µM (p38-alpha): 96%
remaining binding at 10 µM (PLK3): 73%
remaining binding at 10 µM (PAK2): 67%
remaining binding at 10 µM (PIM3): 81%
remaining binding at 10 µM (INSR): 5.1%
remaining binding at 10 µM [1]: 5.5%
remaining binding at 10 µM (FAK): 96%
remaining binding at 10 µM (ABL1-nonphosphorylated): 9.4%
remaining binding at 10 µM (SNARK): 12%
remaining binding at 10 µM (MAPKAPK2): 87%
remaining binding at 10 µM (KIT(D816V)): 100%
remaining binding at 10 µM (PAK1): 69%
remaining binding at 10 µM (PIK3C2B): 61%
remaining binding at 10 µM (VEGFR2): 23%
remaining binding at 10 µM (PIM1): 93%
remaining binding at 10 µM (JNK2): 34%
remaining binding at 10 µM (AURKA): 71%
remaining binding at 10 µM (CDK3): 100%
remaining binding at 10 µM (ABL1-phosphorylated): 4.8%
remaining binding at 10 µM (SRPK3): 100%
remaining binding at 10 µM (AKT1): 100%
remaining binding at 10 µM (PDGFRB): 100%
remaining binding at 10 µM (GSK3B): 61%
remaining binding at 10 µM (IKK-alpha): 45%
remaining binding at 10 µM (PKAC-alpha): 100%
remaining binding at 10 µM (TRKA; [2]): 0%
Kd (TRKA; KINOMEscan): 1100 nM
remaining binding at 10 µM (LKB1): 100%
remaining binding at 10 µM (FLT3): 100%
remaining binding at 10 µM (AKT2): 100%
remaining binding at 10 µM (MET): 91%
remaining binding at 10 µM (CDK9): 96%
remaining binding at 10 µM (MEK2): 22%
remaining binding at 10 µM (EPHA2): 100%
remaining binding at 10 µM (DYRK1B): 100%
remaining binding at 10 µM (TGFBR1): 78%
remaining binding at 10 µM (BMPR2): 32%
remaining binding at 10 µM (MARK3): 100%
remaining binding at 10 µM (CSF1R): 100%
remaining binding at 10 µM (CSNK1G2): 95%
remaining binding at 10 µM (ALK; [2]): 0.5%
Kd (ALK; KINOMEscan): 820 nM
